In ChEMBL document CHEMBL5291721, “A preclinical secondary pharmacology resource illuminates target-adverse drug reaction associations of marketed drugs” (Nat Commun, 2023):
Each block holds one compound with its values, some of them ahead of it.

Columns and labels:
[1] = target: T1, Alpha-1A adrenergic receptor (Homo sapiens, UniProt P35348); type: functional, cell-based
T1 sequence (P35348 whole entry): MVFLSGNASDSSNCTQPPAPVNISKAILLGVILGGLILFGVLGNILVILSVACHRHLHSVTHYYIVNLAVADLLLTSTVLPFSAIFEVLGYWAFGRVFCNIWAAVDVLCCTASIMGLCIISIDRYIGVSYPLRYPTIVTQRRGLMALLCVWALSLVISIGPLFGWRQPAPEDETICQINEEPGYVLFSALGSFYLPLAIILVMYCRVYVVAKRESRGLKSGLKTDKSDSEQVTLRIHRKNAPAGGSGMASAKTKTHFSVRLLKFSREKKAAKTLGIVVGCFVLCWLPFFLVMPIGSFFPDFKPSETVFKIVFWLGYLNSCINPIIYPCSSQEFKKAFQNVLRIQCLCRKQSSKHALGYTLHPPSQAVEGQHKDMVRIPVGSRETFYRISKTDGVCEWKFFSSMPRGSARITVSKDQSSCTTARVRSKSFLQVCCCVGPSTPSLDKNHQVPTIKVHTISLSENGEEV

[2] = target: Vasopressin V1a receptor (Homo sapiens, UniProt P37288)
Sequence of Vasopressin V1a receptor (P37288 whole entry): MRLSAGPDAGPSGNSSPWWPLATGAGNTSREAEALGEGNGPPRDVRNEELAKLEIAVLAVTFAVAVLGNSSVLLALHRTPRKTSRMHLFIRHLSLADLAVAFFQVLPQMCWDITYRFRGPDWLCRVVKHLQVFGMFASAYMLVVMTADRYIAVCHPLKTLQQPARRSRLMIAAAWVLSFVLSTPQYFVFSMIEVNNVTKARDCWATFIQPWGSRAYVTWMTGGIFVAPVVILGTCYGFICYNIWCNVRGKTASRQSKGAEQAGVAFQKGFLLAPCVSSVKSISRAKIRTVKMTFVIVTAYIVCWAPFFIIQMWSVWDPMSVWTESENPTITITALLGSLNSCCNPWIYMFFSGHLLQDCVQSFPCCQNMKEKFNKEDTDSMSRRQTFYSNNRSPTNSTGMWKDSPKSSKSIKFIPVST

[3] = target: Gamma-aminobutyric acid receptor subunit alpha-1 (Rattus norvegicus, UniProt P62813); type: functional
Sequence of Gamma-aminobutyric acid receptor subunit alpha-1 (P62813 whole entry): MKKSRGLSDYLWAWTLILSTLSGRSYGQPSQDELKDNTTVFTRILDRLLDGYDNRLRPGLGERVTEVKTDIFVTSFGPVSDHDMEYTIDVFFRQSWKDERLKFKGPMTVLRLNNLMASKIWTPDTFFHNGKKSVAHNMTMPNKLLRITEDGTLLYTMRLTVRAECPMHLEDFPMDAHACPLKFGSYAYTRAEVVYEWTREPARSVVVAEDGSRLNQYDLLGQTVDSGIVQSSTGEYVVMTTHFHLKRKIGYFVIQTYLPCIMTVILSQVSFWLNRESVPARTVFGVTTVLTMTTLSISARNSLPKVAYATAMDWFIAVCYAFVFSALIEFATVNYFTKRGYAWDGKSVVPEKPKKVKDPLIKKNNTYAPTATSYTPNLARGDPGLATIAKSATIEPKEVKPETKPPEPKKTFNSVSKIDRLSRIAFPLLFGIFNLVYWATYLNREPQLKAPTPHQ

[4] = target: Sodium-dependent noradrenaline transporter (Homo sapiens, UniProt P23975)
Sequence of Sodium-dependent noradrenaline transporter (P23975 whole entry): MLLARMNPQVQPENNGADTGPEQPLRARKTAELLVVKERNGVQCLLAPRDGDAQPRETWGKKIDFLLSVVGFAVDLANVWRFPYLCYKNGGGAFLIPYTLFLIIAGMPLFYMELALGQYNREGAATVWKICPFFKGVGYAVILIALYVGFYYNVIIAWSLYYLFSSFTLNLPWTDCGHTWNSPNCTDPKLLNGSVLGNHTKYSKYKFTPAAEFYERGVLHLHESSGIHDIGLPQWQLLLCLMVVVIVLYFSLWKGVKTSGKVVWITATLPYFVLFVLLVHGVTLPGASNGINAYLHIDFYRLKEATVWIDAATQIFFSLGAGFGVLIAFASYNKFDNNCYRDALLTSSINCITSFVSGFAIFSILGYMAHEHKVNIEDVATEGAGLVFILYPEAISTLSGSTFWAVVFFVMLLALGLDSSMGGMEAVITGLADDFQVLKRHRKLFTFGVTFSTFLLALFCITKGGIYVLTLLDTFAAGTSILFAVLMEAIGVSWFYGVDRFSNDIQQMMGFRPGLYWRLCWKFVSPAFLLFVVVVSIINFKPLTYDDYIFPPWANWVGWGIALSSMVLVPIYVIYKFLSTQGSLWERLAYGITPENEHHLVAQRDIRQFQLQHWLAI

[5] = target: Kappa-type opioid receptor (Homo sapiens, UniProt P41145)
Sequence of Kappa-type opioid receptor (P41145 whole entry): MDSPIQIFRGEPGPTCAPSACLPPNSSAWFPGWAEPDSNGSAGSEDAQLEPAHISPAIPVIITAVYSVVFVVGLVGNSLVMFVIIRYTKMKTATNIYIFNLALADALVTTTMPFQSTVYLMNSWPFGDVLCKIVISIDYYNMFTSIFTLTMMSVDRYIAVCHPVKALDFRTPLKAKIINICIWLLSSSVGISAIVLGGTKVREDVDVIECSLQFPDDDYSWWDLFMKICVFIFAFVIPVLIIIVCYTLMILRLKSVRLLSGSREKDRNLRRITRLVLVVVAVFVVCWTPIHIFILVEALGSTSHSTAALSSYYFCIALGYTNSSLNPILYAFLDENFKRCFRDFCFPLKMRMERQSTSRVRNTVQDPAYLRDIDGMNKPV

[6] = target: T2, Prostaglandin G/H synthase 1 (Rattus norvegicus, UniProt Q63921); type: functional
T2 sequence (Q63921 whole entry): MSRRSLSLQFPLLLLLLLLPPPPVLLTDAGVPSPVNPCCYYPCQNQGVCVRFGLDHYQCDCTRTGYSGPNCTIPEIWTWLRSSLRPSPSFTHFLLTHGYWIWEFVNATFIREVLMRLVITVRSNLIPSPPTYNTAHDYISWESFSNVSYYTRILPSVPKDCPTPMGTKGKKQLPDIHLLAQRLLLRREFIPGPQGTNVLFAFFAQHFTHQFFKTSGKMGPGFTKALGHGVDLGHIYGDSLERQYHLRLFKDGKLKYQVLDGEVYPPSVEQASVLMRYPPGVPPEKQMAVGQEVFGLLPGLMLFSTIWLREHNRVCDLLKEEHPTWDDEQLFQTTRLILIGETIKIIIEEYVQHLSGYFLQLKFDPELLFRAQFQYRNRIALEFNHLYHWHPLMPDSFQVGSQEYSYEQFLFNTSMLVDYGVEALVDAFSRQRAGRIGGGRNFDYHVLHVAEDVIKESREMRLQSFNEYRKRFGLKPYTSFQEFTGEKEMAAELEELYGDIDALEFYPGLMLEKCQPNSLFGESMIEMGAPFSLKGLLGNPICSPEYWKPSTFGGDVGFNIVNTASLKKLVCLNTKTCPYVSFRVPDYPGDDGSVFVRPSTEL

[7] = target: Sodium-dependent dopamine transporter (Homo sapiens, UniProt Q01959)
Sequence of Sodium-dependent dopamine transporter (Q01959 whole entry): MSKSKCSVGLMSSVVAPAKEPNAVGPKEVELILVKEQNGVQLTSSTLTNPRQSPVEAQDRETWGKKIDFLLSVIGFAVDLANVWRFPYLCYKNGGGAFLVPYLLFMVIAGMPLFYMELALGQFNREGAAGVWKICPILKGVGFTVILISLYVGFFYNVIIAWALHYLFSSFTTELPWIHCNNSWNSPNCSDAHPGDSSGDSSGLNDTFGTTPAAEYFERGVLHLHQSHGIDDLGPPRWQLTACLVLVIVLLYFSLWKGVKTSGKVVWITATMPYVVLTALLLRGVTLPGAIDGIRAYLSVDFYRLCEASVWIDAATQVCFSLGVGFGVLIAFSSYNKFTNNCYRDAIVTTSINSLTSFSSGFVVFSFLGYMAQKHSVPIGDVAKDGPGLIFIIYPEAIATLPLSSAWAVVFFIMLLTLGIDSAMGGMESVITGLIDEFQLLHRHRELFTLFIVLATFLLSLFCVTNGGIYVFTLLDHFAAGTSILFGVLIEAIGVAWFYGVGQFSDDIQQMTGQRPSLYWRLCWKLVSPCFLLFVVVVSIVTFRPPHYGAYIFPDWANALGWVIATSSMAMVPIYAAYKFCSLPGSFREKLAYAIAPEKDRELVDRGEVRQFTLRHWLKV

[8] = target: Voltage-dependent L-type calcium channel subunit alpha-1C (Rattus norvegicus, UniProt P22002); type: functional
[9] = target: T3, Amine oxidase [flavin-containing] A (Homo sapiens, UniProt P21397); type: functional
T3 sequence (P21397 whole entry): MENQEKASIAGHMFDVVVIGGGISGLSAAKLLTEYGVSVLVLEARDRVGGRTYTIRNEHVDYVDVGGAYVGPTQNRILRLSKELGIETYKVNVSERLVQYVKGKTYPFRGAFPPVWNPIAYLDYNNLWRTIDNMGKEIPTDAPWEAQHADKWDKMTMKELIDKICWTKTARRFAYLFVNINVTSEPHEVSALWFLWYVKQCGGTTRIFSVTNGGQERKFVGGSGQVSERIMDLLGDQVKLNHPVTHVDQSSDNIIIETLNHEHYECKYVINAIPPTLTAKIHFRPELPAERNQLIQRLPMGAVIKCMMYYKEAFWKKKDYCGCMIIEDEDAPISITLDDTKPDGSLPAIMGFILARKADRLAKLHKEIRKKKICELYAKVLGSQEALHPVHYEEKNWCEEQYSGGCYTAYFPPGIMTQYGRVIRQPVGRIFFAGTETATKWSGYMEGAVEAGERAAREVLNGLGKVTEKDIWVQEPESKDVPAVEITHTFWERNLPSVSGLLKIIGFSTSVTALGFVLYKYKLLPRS

[10] = target: cGMP-inhibited 3',5'-cyclic phosphodiesterase 3A (Homo sapiens, UniProt Q14432); type: functional
Sequence of cGMP-inhibited 3',5'-cyclic phosphodiesterase 3A (Q14432 whole entry): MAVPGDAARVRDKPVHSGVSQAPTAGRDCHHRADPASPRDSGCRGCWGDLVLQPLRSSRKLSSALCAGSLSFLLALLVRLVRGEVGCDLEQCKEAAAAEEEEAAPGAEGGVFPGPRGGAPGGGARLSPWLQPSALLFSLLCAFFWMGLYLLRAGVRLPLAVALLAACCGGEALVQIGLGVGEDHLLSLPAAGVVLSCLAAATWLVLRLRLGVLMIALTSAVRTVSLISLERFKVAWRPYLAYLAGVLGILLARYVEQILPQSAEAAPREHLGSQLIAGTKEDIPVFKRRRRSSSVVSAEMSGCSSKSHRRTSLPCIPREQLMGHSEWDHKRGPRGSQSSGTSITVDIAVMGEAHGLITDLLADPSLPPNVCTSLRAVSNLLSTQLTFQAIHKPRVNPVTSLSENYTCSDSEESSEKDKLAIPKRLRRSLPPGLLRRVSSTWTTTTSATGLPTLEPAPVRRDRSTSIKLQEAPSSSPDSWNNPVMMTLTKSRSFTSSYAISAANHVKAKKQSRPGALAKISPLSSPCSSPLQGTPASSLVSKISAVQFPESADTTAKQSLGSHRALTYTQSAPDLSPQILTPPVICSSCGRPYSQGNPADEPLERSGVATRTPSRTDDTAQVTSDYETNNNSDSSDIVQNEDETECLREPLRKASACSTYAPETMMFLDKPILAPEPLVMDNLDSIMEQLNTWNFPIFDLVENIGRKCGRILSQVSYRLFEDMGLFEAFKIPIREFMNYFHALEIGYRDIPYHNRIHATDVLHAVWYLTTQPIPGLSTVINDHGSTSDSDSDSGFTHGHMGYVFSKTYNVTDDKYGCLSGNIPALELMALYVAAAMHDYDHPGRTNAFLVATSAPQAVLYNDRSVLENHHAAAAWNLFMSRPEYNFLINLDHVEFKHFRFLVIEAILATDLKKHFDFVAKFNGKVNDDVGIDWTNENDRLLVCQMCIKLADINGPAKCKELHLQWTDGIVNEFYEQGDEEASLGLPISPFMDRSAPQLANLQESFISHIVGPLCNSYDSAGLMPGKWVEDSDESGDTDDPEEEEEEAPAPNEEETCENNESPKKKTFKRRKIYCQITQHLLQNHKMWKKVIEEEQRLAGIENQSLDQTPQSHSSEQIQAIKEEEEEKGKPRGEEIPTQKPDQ

[11] = target: T4, Gastrin/cholecystokinin type B receptor (Homo sapiens, UniProt P32239)
T4 sequence (P32239 whole entry): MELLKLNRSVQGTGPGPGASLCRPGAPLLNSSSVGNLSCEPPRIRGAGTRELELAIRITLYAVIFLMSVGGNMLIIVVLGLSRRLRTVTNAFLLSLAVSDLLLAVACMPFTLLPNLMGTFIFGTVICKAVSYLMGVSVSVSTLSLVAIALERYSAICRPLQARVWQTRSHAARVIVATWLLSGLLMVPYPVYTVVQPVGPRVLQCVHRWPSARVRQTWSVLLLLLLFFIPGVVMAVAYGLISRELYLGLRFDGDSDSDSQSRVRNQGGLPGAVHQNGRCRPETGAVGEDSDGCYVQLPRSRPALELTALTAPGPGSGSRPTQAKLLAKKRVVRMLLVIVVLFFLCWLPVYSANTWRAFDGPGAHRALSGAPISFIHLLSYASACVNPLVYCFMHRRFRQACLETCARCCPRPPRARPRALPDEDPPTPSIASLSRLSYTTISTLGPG

[12] = target: T5, Adenosine receptor A3 (Homo sapiens, UniProt P0DMS8)
T5 sequence (P0DMS8 whole entry): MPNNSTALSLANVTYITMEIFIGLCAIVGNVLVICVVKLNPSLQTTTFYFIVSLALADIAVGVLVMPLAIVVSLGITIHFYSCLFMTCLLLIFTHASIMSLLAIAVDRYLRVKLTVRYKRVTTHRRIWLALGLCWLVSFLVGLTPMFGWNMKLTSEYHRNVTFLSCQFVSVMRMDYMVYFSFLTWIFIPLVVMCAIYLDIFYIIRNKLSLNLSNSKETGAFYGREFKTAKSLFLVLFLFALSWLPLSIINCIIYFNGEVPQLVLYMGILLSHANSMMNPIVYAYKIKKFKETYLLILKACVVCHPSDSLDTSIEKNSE

[13] = target: T1, Alpha-1A adrenergic receptor; type: functional, cell-based; remark: listed apart in the source
Note: assay procedure not described here.

SMILES: OC[C@H]1O[C@@H](c2ccc(F)c(Cc3cc4ccccc4s3)c2)[C@H](O)[C@@H](O)[C@@H]1O [IPRAGLIFLOZIN]
AC50 [1]: 22.2 µM

SMILES: CN1CCC(=C2c3ccccc3Sc3ccccc32)CC1 [PIMETHIXENE]
AC50 [1]: 0.121 µM

SMILES: O=C(O)COc1ccc(C(=O)c2cccs2)c(Cl)c1Cl
AC50 [1]: > 30 µM

SMILES: C[C@]1(Cn2ccnn2)[C@H](C(=O)O)N2C(=O)C[C@H]2S1(=O)=O [TAZOBACTAM]
AC50 [1]: > 30 µM

SMILES: FC(F)(F)c1ccc(CNc2ccc(Cc3c[nH]c4ncc(Cl)cc34)cn2)cn1 [PEXIDARTINIB]
AC50 [1]: 1.8 µM

SMILES: [H]/N=C(\N/C(=N/[H])Nc1ccc(Cl)cc1)NC(C)C [PROGUANIL]
AC50 [1]: > 30 µM

SMILES: C[C@H]1O[C@@H](n2cc(F)c(=O)[nH]c2=O)[C@H](O)[C@@H]1O [DOXIFLURIDINE]
AC50 [1]: > 30 µM

AC50 [2]: > 30 µM
AC50 [3]: > 30 µM
AC50 [4]: 11.3 µM
AC50 [5]: 22 µM
AC50 [6]: > 30 µM
AC50 [7]: > 30 µM
AC50 [8]: > 30 µM
AC50 [9]: > 30 µM
AC50 [10]: > 30 µM
AC50 [11]: > 30 µM
AC50 [12]: > 30 µM
AC50 [13]: 12 µM
SMILES: COc1ccc(CC2c3cc(OC)c(OC)cc3CC[N+]2(C)CCC(=O)OCCCCCOC(=O)CC[N+]2(C)CCc3cc(OC)c(OC)cc3C2Cc2ccc(OC)c(OC)c2)cc1OC (stereo not drawn)

SMILES: CC(=O)Oc1cc(C(F)(F)F)ccc1C(=O)O [TRIFLUSAL]
AC50 [1]: > 30 µM

SMILES: N[C@@H](CS)C(=O)O [CYSTEINE]
AC50 [1]: > 30 µM

SMILES: CCn1cc(C(=O)O)c(=O)c2cc3c(cc21)OCO3 [OXOLINIC ACID]
AC50 [1]: > 30 µM

SMILES: CC(C)C[C@H](NC(=O)CNC(=O)c1cc(Cl)ccc1Cl)B(O)O [IXAZOMIB]
AC50 [1]: > 30 µM

SMILES: O=C(O)c1cc(/N=N/c2ccc(O)c(C(=O)O)c2)ccc1O [OLSALAZINE]
AC50 [1]: > 30 µM

AC50 [2]: > 30 µM
AC50 [4]: > 30 µM
AC50 [6]: > 30 µM
AC50 [7]: > 30 µM
AC50 [11]: > 30 µM
AC50 [12]: > 30 µM
SMILES: CC(C)(C)NCC(O)c1cc(O)cc(O)c1 (stereo not drawn) [TERBUTALINE]

SMILES: CN(CC1(C)CCCO1)S(=O)(=O)c1ccc(Cl)c(S(N)(=O)=O)c1 (stereo not drawn) [MEFRUSIDE]
AC50 [3]: > 30 µM
AC50 [5]: > 30 µM
AC50 [9]: > 30 µM
AC50 [10]: > 30 µM
AC50 [13]: > 30 µM

SMILES: C#C[C@]1(O)CC[C@H]2[C@@H]3CCC4=CC(=O)CC[C@@H]4[C@H]3C(=C)C[C@@]21CC [ETONOGESTREL]
AC50 [3]: 27 µM
AC50 [5]: > 30 µM
AC50 [9]: > 30 µM
AC50 [10]: > 30 µM
AC50 [13]: > 30 µM

SMILES: O=C1/C(=C2\Nc3ccc(S(=O)(=O)O)cc3C2=O)Nc2ccc(S(=O)(=O)O)cc21 [INDIGOTINDISULFONATE]
AC50 [1]: > 30 µM

SMILES: CC[C@H](c1ccc(O)cc1)[C@@H](CC)c1ccc(O)cc1 [HEXESTROL]
AC50 [1]: > 3 µM

SMILES: C/C=C/C/C=C/CCC(=O)[C@H]1O[C@H]1C(N)=O [CERULENIN]
AC50 [1]: > 30 µM

SMILES: Nc1ccc(C(=O)Oc2ccccc2)c(O)c1 [PHENYL AMINOSALICYLATE]
AC50 [1]: 23 µM

SMILES: CCc1nc(C(N)=O)c(Nc2ccc(N3CCC(N4CCN(C)CC4)CC3)c(OC)c2)nc1NC1CCOCC1 [GILTERITINIB]
AC50 [1]: > 0.3 µM

SMILES: COc1c2ccoc2cc2oc(=O)ccc12 [BERGAPTEN]
AC50 [1]: > 30 µM

SMILES: N[C@@H](CO)C(=O)O [SERINE]
AC50 [1]: > 30 µM

SMILES: CN1CCCCC1CCN1c2ccccc2Sc2ccc([S+](C)[O-])cc21 (stereo not drawn) [MESORIDAZINE]
AC50 [1]: 0.0171 µM

SMILES: Cc1onc(-c2ccccc2)c1C(=O)N[C@@H]1C(=O)N2[C@@H]1SC(C)(C)[C@@H]2C(=O)O [OXACILLIN]
AC50 [1]: > 30 µM

SMILES: CC(CN1CC(=O)NC(=O)C1)N1CC(=O)NC(=O)C1 (stereo not drawn) [RAZOXANE]
AC50 [1]: > 30 µM

SMILES: C[N+](C)(C)C[C@H](O)CC(=O)[O-] [LEVOCARNITINE]
AC50 [1]: > 30 µM

AC50 [2]: > 30 µM
AC50 [3]: > 30 µM
AC50 [5]: > 30 µM
AC50 [6]: > 30 µM
AC50 [9]: > 30 µM
AC50 [10]: > 30 µM
AC50 [11]: > 30 µM
AC50 [12]: > 30 µM
SMILES: CN(C)CCC[C@@]1(c2ccc(F)cc2)OCc2cc(C#N)ccc21 [ESCITALOPRAM]

SMILES: CC(C)(O)CNc1nc(Nc2ccnc(C(F)(F)F)c2)nc(-c2cccc(C(F)(F)F)n2)n1 [ENASIDENIB]
AC50 [1]: 20.3 µM

SMILES: CC(C)OC(=O)CCC/C=C\C[C@@H]1[C@@H](/C=C/C(F)(F)COc2ccccc2)[C@H](O)C[C@@H]1O [TAFLUPROST]
AC50 [1]: > 30 µM

SMILES: CNC(=O)Oc1cccc2ccccc12 [CARBARIL]
AC50 [1]: > 30 µM

SMILES: CCOC(=O)C1=C[C@@H](OC(CC)CC)[C@H](NC(C)=O)[C@@H](N)C1 [OSELTAMIVIR]
AC50 [1]: > 30 µM

SMILES: OC[C@H]1O[C@@H](c2ccc(Cl)c(Cc3ccc(O[C@H]4CCOC4)cc3)c2)[C@H](O)[C@@H](O)[C@@H]1O [EMPAGLIFLOZIN]
AC50 [1]: > 30 µM

SMILES: OC[C@H]1O[C@@](CO)(O[C@H]2O[C@H](CO)[C@@H](O)[C@H](O)[C@H]2O)[C@@H](O)[C@@H]1O [SUCROSE]
AC50 [2]: > 30 µM
AC50 [3]: > 30 µM
AC50 [4]: > 30 µM
AC50 [5]: > 30 µM
AC50 [6]: > 30 µM
AC50 [7]: > 30 µM
AC50 [9]: > 30 µM
AC50 [10]: > 30 µM
AC50 [11]: > 30 µM
AC50 [12]: > 30 µM
AC50 [13]: > 30 µM

SMILES: Cc1ccccc1C(=O)Nc1ccc(C(=O)N2CCCC(N(C)C)c3ccccc32)cc1 (stereo not drawn) [MOZAVAPTAN]
AC50 [1]: 18.8 µM

AC50 [2]: > 30 µM
AC50 [3]: > 30 µM
AC50 [4]: 18 µM
AC50 [5]: 12 µM
AC50 [6]: > 30 µM
AC50 [8]: > 30 µM
AC50 [9]: > 30 µM
AC50 [10]: > 10 µM
AC50 [11]: > 30 µM
AC50 [12]: > 30 µM
AC50 [13]: > 30 µM
SMILES: CN(C)CC[C@@H](c1ccc(Cl)cc1)c1ccccn1 [DEXCHLORPHENIRAMINE]

SMILES: CC[C@H]1OC(=O)[C@H](C)C(=O)[C@H](C)[C@@H](O[C@@H]2O[C@H](C)C[C@H](N(C)C)[C@H]2O)[C@](C)(OC)C[C@@H](C)C(=O)[C@H](C)[C@H]2N(CCCCn3cnc(-c4cccnc4)c3)C(=O)O[C@]12C [TELITHROMYCIN]
AC50 [1]: > 30 µM
